Test results taken from ChEMBL document CHEMBL1144381, “Synthesis and antimycobacterial activity of ferrocenyl ethambutol analogues and ferrocenyl diamines” (2005).

The compounds below were run on Mycobacterium tuberculosis (assay: In vitro minimum inhibitory concentration measured against Mycobacterium tuberculosis H37Rv strain).
Type: functional

Q: How did the MIC turn out when “(1S)-2-({[6-({[(5R)-5-hydroxycyclopenta-1,3-dien-1-yl]methyl}amino)hexyl]amino}methyl)cyclopenta-2,4-dien-1-ol bis(cyclopenta-1,3-diene) diiron” was run?
A: Its MIC is over 64 mg/L.

Q: With `c1ccc(CNCCNCc2ccccc2)cc1` as the compound, how does the MIC read?
A: The MIC was over 64 mg/L.

Q: For “(cyclopenta-1,3-dien-1-ylmethyl)({3-[(cyclopenta-1,3-dien-1-ylmethyl)amino]propyl})amine bis(cyclopenta-1,3-diene) diiron”, which MIC is on record?
A: Its MIC is 8 mg/L.

Q: With “(cyclopenta-1,3-dien-1-ylmethyl)({2-[(cyclopenta-1,3-dien-1-ylmethyl)amino]ethyl})amine bis(cyclopenta-1,3-diene) diiron” as the compound, how does the MIC read?
A: Its MIC is 8 mg/L.

Q: “(cyclopenta-1,3-dien-1-ylmethyl)(hexyl)amine (cyclopenta-1,3-dien-1-ylmethyl)(methyl)amine bis(cyclopenta-1,3-diene) diiron” was tested. Which MIC did it give?
A: Its MIC is 32 mg/L.

Q: “(cyclopenta-1,3-dien-1-ylmethyl)({4-[(cyclopenta-1,3-dien-1-ylmethyl)amino]butyl})amine bis(cyclopenta-1,3-diene) diiron” was tested. Which MIC did it give?
A: The MIC was 32 mg/L.

Q: How did the MIC turn out when “(1S)-2-({[4-({[(5R)-5-hydroxycyclopenta-1,3-dien-1-yl]methyl}amino)butyl]amino}methyl)cyclopenta-2,4-dien-1-ol bis(cyclopenta-1,3-diene) diiron” was run?
A: The MIC was over 64 mg/L.
